Consider one molecule from article PMC5400565, “Real-time near-infrared fluorescence imaging using cRGD-ZW800-1 for intraoperative visualization of multiple cancer types” (Oncotarget, 2017).

In data set [1] the target is Opioid κ (KOP) (Rattus norvegicus, UniProt P34975). Put plainly: biochemical. Type of data set: binding.
Data set [2] has as its target T1, Serotonin 5-HT2A (Homo sapiens, UniProt P28223).
T1 construct: Eurofins Cerep SA (contract screening)
The data set can be described thus: Off-target screening (Eurofins Cerep), 5-HT2A. It is filed as binding.

Data set [3] has as its system HT-29 cells. Put plainly: In vitro competition with unlabeled cRGD, HT-29. Type of data set: cell-based, human. Conditions: 500 nM cRGD-ZW800-1 + 500 nM unlabeled cRGD (1:1), 37°C, 2 h, vs cells without unlabeled cRGD, triplicate. As to the method: For in vitro competition, U-87 MG (αvβ3 and αvβ5 positive, αvβ6 negative) and HT-29 (αvβ3 negative, αvβ5 and αvβ6 positive) cells were plated in a 96-well plate at a density of ∼40,000 and ∼60,000 cells per well, respectively. Subsequently, 500 nM of cRGD-ZW800-1 was simultaneously added to the cells and incubated at 37°C for 2 h. At the same time, half of the cells were also incubated with 500 nM unlabeled (“cold”) cRGD.
Both the cells in the binding and the competition experiment were then washed twice and imaged with the Odyssey NIR scanner (LI-COR Biosciences, Lincoln, Nebraska: focus offset 3 mm; 800-nm channel). Next, cells were permeabilized with a 40/60 mixture of acetone and methanol followed by a washing step and a 5 min incubation with ToPro3 (1/2000, Invitrogen), a far red fluorescent dye (642/661nm). The wells were then washed and again imaged with the Odyssey scanner (focus offset 3 mm; 700-nm channel) to quantify the number of cells in each well. The experiments were performed in triplicate.

In data set [4] the test system is HT-29 tumors and organs. The data set can be described thus: Ex vivo biodistribution, HT-29 model. It is filed as in vivo, mice. Particulars: 24 h post injection. As to the method: After imaging, mice were sacrificed and OSC-19 and BxPC-3 tumors were quickly frozen in isopentane at -80°C for histological evaluation. Tissues were sectioned at 10 μm and fluorescence imaging was performed using fluorescence microscopy (Nikon eclipse e800, Nikon, Amsterdam, The Netherlands). All histologic sections were stained with standard hematoxylin-eosin stain (HE). Organs of mice with colorectal and pancreatic cancer were collected and imaged using the Pearl® to evaluate biodistribution.
Mice were administered with 0.25 (HT-29 model only), 1.0, 10, or 30 nmol cRGD-ZW800-1 to evaluate tumor signals, biodistribution, and to calculate TBRs (n = 3 per dose group). At 4 h (BxPC-3 model) and 24 h (HT-29 model) after injection, mice were fully dissected and fluorescence intensity of their organs was measured.
Mice bearing orthotopic OSC-19 tumors (n = 2) were administrated with 10 nmol cRGD-ZW800-1 and imaged at 4 h. Mice bearing orthotopic MCF-7 tumors (n = 2) were injected with 10 nmol cRGD-ZW800-1 and imaged at 0.5, 1, 2, 4, 6, 8, 24, and 48 h post injection. […] In vivo TBRs were calculated by dividing the mean fluorescence signals of tumors by the mean of surrounding tissue. Ex vivo organ-to-tumor ratios were calculated by dividing the fluorescence intensity of the organ by that of the tumor.

T1 sequence (P28223 whole entry): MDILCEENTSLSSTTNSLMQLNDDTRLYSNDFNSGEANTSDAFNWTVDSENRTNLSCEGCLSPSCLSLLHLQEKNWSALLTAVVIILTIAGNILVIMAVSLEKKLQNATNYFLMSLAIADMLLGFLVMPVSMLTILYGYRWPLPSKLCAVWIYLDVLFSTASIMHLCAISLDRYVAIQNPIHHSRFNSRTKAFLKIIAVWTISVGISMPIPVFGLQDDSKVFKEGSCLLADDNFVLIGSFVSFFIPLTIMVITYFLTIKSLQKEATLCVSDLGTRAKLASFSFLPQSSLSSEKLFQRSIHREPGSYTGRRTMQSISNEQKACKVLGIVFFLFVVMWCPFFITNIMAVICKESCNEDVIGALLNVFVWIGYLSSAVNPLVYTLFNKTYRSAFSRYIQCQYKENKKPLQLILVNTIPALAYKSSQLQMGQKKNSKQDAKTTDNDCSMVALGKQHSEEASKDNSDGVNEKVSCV
Opioid κ (KOP), sequence (P34975 whole entry): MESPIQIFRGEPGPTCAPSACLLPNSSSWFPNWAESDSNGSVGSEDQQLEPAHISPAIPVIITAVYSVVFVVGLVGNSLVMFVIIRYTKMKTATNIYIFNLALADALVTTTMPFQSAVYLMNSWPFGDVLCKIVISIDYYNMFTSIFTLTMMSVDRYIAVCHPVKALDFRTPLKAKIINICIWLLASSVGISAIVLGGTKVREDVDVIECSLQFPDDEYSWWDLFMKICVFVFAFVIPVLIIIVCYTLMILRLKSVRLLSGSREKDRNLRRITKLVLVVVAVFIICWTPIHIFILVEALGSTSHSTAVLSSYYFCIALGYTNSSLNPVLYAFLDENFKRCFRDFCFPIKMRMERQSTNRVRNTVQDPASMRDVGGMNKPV

On to `CC1(C)C(/C=C/C2=C(Oc3ccc(CCC(=O)NCCCC[C@@H]4NC(=O)[C@@H](Cc5ccc(O)cc5)NC(=O)[C@H](CC(=O)O)NC(=O)CNC(=O)[C@H](CCCNC(=N)N)NC4=O)cc3)C(=C/C=C3/N(CCC[N+](C)(C)C)c4ccc(S(=O)(=O)O)cc4C3(C)C)/CCC2)=[N+](CCC[N+](C)(C)C)c2ccc(S(=O)(=O)O)cc21` [cRGD-ZW800-1], for which the inhibition at 10 µM in data set [1] (read-out: % Inhibition of Control Specific Binding) is 19%; in data set [2] (10 μM cRGD-ZW800-1, format H, Ag, performed twice, read-out: % Inhibition of Control Specific Binding), -9%. For the same molecule, the remaining activity at 10 µM was found to be 81.2% in data set [1] (read-out: % of Control Specific Binding Mean) and 109% in data set [2] (10 μM, mean of 2, read-out: % of Control Specific Binding Mean). For the same molecule, the “reduction of fluorescence signal by unlabeled cRGD” value in data set [3] is given as 32%. In addition, the “fluorescence signal in kidneys (all dose groups), liver and skin (only 10 and 30 nmol) compared to tumor” value in data set [4] is “higher”. For the same molecule, the “tumor fluorescence relative to lungs, pancreas, muscle, gallbladder, brain, and blood” value in data set [4] (all dose groups) was “more than twice as fluorescent”.

What is called inhibition is the drop in the measured response relative to a control, in per cent.
